The text below walks through data of ChEMBL document CHEMBL3871297, “Squarate-based carbocyclic nucleosides: Syntheses, computational analyses and anticancer/antiviral evaluation” (2017).

Common to all, as to format: functional
A short description of assay [1]: Cytotoxicity against human SNB75 cells assessed as cell growth at 10 uM after 2 days by SRB assay relative to control. As to conditions: SNB-75, 48 h, read-out: Activity. Background: Sulforhodamine B stains cellular protein and so reports cell mass.
Assay [2] can be described thus: Cytotoxicity against human BT549 cells assessed as cell growth at 10 uM after 2 days by SRB assay relative to control. As to conditions: BT-549, 48 h, read-out: Activity.
Assay [3] can be described thus: Cytotoxicity against human OVCAR5 cells assessed as cell growth at 10 uM after 2 days by SRB assay relative to control. The following applies: OVCAR-5, 48 h, read-out: Activity.
The nature of assay [4]: Cytotoxicity against human MDA-MB-231 cells assessed as cell growth at 10 uM after 2 days by SRB assay relative to control. As to conditions: MDA-MB-231, 48 h, read-out: Activity.
Assay [5] is described as follows: Cytotoxicity against human T47D cells assessed as cell growth at 10 uM after 2 days by SRB assay relative to control. The following applies: 48 h, read-out: Activity.
The nature of assay [6]: Cytotoxicity against human OVCAR4 cells assessed as cell growth at 10 uM after 2 days by SRB assay relative to control. The following applies: OVCAR-4, 48 h, read-out: Activity.
Assay [7] in a line: Cytotoxicity against human NCI-H322M cells assessed as cell growth at 10 uM after 2 days by SRB assay relative to control. The following applies: 48 h, read-out: Activity.
Assay [8] in a line: Cytotoxicity against human IGROV1 cells assessed as cell growth at 10 uM after 2 days by SRB assay relative to control. The following applies: IGROV-1, 48 h, read-out: Activity.
Assay [9] is described as follows: Cytotoxicity against human A549 cells assessed as cell growth at 10 uM after 2 days by SRB assay relative to control. The following applies: A549, 48 h, read-out: Activity.
The nature of assay [10]: Cytotoxicity against human U251 cells assessed as cell growth at 10 uM after 2 days by SRB assay relative to control. The following applies: U-251, 48 h, read-out: Activity.
The nature of assay [11]: Cytotoxicity against human A498 cells assessed as cell growth at 10 uM after 2 days by SRB assay relative to control. As to conditions: A498, 48 h, read-out: Activity.
Assay [12] in a line: Cytotoxicity against human HeLa cells assessed as reduction in cell viability cell at 300 uM after 24 hrs by MTT assay.
A short description of assay [13]: Cytotoxicity against human PC3 cells assessed as cell growth at 10 uM after 2 days by SRB assay relative to control. As to conditions: PC-3, 48 h, read-out: Activity.
Assay [14] in a line: Cytotoxicity against human RXF393 cells assessed as cell growth at 10 uM after 2 days by SRB assay relative to control. As to conditions: RXF 393, 48 h, read-out: Activity.
The nature of assay [15]: Cytotoxicity against human SN12C cells assessed as cell growth at 10 uM after 2 days by SRB assay relative to control. The following applies: 48 h, read-out: Activity.
A short description of assay [16]: Cytotoxicity against human DU145 cells assessed as cell growth at 10 uM after 2 days by SRB assay relative to control. As to conditions: DU-145, 48 h, read-out: Activity.
Assay [17] is described as follows: Cytotoxicity against human OVCAR3 cells assessed as cell growth at 10 uM after 2 days by SRB assay relative to control. The following applies: OVCAR-3, 48 h, read-out: Activity.

Consider `Nc1c(N[C@H]2C=C[C@@H](CO)C2)c(=O)c1=O`, for which the growth at 10 µM in assay [1] stood at 111%; in assay [2], 115%; in assay [3], 106%; in [4] it was 113%; in [5], 105%; in [6] it was 111%. Moreover, the growth at 10 µM in assay [7] was 106%; in assay [8], 96.2%; in assay [9] it was 97.9%; in assay [10], 103%; in [11] it was 114%; in assay [13], 103%. In addition, the growth at 10 µM in [14] was determined as 143%; in assay [15] it was 105%. For the same molecule, the inhibition – broadly, the drop in the measured response relative to a control, in per cent – at 300 µM in assay [12] worked out at 50%.
In the case of `O=c1c(O)c(N[C@H]2C=C[C@@H](CO)C2)c1=O`, the growth at 10 µM in assay [16] is 120%; in [1], 103%; in assay [3], 108%; in assay [4], 150%; in assay [5], 107%; in assay [6] it was 102%. For the same molecule, the growth at 10 µM was found to be 120% in assay [7]; 111% in assay [8]; 108% in assay [9]; 112% in [10]; 110% in assay [13]; 166% in assay [14]. Also, the growth at 10 µM in assay [17] came out at 122%; in [15], 120%.
On to `COc1c(N[C@H]2C=C[C@@H](CO)C2)c(=O)c1=O`, for which the growth at 10 µM in assay [16] was 117%; in assay [1] it was 107%; in assay [2], 110%; in assay [3], 100%; in assay [4] it was 110%; in [5], 106%. Also, the growth at 10 µM in assay [6] came out at 109%; in [7], 108%; in assay [8] it was 93%; in [9], 97.8%; in assay [10], 103%; in assay [11], 105%. Also, the growth at 10 µM in [13] was found to be 101%; in assay [14], 126%; in [17], 105%; in assay [15] it was 112%.
